# Assay results taken from US7601850B2, “Phenyl-thiophene type vitamin D receptor modulators” (Eli Lilly and Company, priority 2002, dated 2009).
# Read-outs that look alike come from different tables or passages of the source.
# Columns and labels:
# RXR-VDR heterodimer = target: T1, RXR-VDR heterodimer (Homo sapiens, UniProt P11473); test: RXR-VDR heterodimerization assay (SaOS-2 cells); type: cell-based
# T1 construct: Add the Gal-4-RXR-DEF and VP16-VDR-LBD; expressed in transfected cells; host or cells: SaOS-2 cells
# T1 sequence (P11473 127-423 limits assumed): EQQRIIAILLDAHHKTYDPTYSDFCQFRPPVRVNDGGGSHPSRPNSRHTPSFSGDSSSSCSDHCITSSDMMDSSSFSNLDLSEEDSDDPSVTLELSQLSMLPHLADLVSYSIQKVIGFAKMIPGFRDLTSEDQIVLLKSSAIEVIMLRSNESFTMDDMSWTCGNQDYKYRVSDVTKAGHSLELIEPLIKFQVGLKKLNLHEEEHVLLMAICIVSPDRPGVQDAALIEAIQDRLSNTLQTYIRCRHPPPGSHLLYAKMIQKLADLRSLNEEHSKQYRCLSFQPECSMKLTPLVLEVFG
# T1 sequence (P19793 201-462 partner limits assumed): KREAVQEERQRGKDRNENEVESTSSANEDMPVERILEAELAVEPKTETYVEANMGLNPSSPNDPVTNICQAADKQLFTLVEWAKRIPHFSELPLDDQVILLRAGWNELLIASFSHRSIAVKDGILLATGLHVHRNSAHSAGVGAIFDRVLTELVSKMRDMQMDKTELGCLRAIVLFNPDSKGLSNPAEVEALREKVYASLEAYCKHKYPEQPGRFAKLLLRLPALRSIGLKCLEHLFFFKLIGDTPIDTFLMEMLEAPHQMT
# Text: 2. The RXR-VDR heterodimerization (SaOS-2 cells) test is described in the “Assay” section of the Description, infra.
# 1. The RXR-VDR heterodimerAssay:
# This assay provides the VDR activity of a test compound.
# (1) Materials and Method for RXR-VDR Heterodimerization Assay:
# Luciferase Assay Reagent: • Use Steady-Glo Luciferase Reagent from Promega (Cat # E2550) Consists of: • a. E2533 Assay Substrate, lyopholized product and • b. […] DAY 2: Transfection Step 1: DNA and Media • Add plain DMEM media to tubes for mixing the DNA • Add the Reporter gene pFR-LUC • Add the Gal-4-RXR-DEF and VP16-VDR-LBD Step 2: FuGENE and Media • Prepare plain DMEM media in a ubes for mixing FuGENE • Add FuGENE 6 Transfection Reagent • Incubate Step 3: FuGENE, DNA and Media Complex • Add FuGENE Media complex from step 2 to DNA Media complex from step 1 • Incubate Step 4: FuGENE, DNA and Media Complex to-well plate • Add FuGENE-DNA-Media complex from step 3 to each plate • Incubate. […] Day 4: Luciferase Assay • Read the plates after drug treatment • Remove part of media from all the wells and leave remainder • Add Steady-Glo Luciferase Reagent mixture/wells • Incubate • Count each well using a Luminescence counter, Top Count NXT by Packard
# Set a delay between plates to reduce the background.
# VDR = target: T2, VDR (Homo sapiens, UniProt P11473); test: VDR CTF (Caco-2 cell co-transfection assay); type: cell-based; conditions: Caco-2 cells
# T2 construct: the receptor expression vector pGa14-VDR-LBD (10 ng); expressed in transfected cells; host or cells: Caco-2 cells
# T2 sequence (P11473 127-423 limits assumed): T1 sequence (P11473 127-423 limits assumed)
# Experimental: 3. The VDR CTF (Caco-2 cells) test is described in the “Assay” section of the Description, infra.
# 2. The Caco-2 Cell Co-Transfection Assay:
# The Caco-2 cell assay is an indicator for the undesirable condition of hypercalcemia. This co-transfection assay is a surrogate assay for in vivo calcemic activity of VDR ligands. […] Preferred assay results are greater than 1000 nM.
# (2) Materials and Method for The Caco-2 Cell Assay:
# Caco-2 cells, grown in phenol red free, DMEM (Invitrogen, Carlsbad, Calif.) containing 10% charcoal-stripped FCS (Hyclone, Logan, Utah), were transfected with Fugene 6 reagent (Roche Diagnostics, Indianapolis, Ind.). Cells (5000/well) were plated 18 h before transfection in a 96 well plate. The Cells were transfected with Gal-4-responsive reporter pFRLuc (150 ng, Stratagene, La Jolla Calif.) and the receptor expression vector pGa14-VDR-LBD (10 ng), along with Fugene 6 reagent (0.2 µl/well). The DNA-Fugene complex was formed by incubating the mixture for 30 min at room temperature. The cells were transfected in triplicate for 5 h, and treated with various concentrations of VDR ligands (form 0.01 nM to 10,000 nM concentration range) 18 h post-transfection. The luciferase activity was quantified using Steady-Glo reagent kit (Promega, Madison, Wis.) as per manufacturer's specifications.
# rat osteocalcin promoter = test: OCN (osteocalcin) promoter assay in RG-15 (ROS 17/2.8) cells; type: cell-based
# Method in brief: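 Rat osteoblast-like RG-15 (ROS 17/2.8) cells stably carry the rat osteocalcin promoter fused to luciferase. They were treated with compounds for 48 h in medium with 2% FBS and 0.01% DMSO. EC50 was derived from luciferase activity in cell lysates.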
# [1] = Mouse hypercalcemia assay (six day, serum ionized calcium); type: in vivo
Compound,EC50 (VDR) [nM],EC50 (rat osteocalcin promoter; Rattus norvegicus) [nM],EC50 (RXR-VDR heterodimer) [nM],EC50 (rat osteocalcin promoter) [nM],Mouse Hypercal [1] [µg/kg/day]
"CCC(CC)(c1ccc(OCS(C)(=O)=O)c(C)c1)c1cc(C)c(CCC(O)C(C)(C)C)s1 (single isomer, unassigned) [Ex. 15B]",245,–,212,–,–
"CCCc1cc(C(CC)(CC)c2ccc(C(=O)O)s2)ccc1OCC(O)C(C)(C)C (single isomer, unassigned) [Ex. 95, 3′-[4-(2-hydroxy-3,3-dimethylbutoxy)-3-n-propylphenyl]-3′-[5-carboxy-thiophen-2-yl]pentane]",1180,–,421,21.4,>6000
"CCc1cc(C(CC)(CC)c2ccc(C(=O)O)s2)ccc1OCC(O)C(C)(C)C (single isomer, unassigned) [Ex. 101, 3′-[4-(2-hydroxy-3,3-dimethylbutoxy)-3-ethylphenyl]-3′-[5-carboxy-thiophen-2-yl]pentane]",–,–,379,29.4,12000
"CCCc1cc(C(CC)(CC)c2ccc(C(=O)O)s2)ccc1OCC(C)(O)C(C)(C)C (single isomer, unassigned) [Ex. 113, 3′-[4-(2-hydroxy-2,3,3-trimethylbutoxy)-3-n-propylphenyl]-3′-[5-carboxy-thiophen-2-yl]pentane]",–,–,542,118,–
"CCC(CC)(c1ccc(OCC(C)(O)C(C)(C)C)c(OC)c1)c1ccc(C(=O)N[C@H](C)C(=O)O)s1 (single isomer, unassigned) [Ex. 117, d-3′-[4-(2-hydroxy-2,3,3-trimethylbutoxy)-3-methoxyphenyl]-3′-[5-(carboxy-1-ethylamino)carbonyl-thiophen-2-yl]pentane]",–,–,2210,101,–
"CCC(CC)(c1ccc(OCC(O)C(C)(C)C)c(C)c1)c1ccc(S(=O)(=O)NCC(=O)OC)s1 (single isomer, unassigned) [Ex. 152]",–,110,474,–,–

# Now from value to compound, other results behind:
EC50 (VDR) [nM],EC50 (rat osteocalcin promoter; Rattus norvegicus) [nM],Compound,EC50 (RXR-VDR heterodimer) [nM],EC50 (rat osteocalcin promoter) [nM],Mouse Hypercal [1] [µg/kg/day]
1060,326,"CCC(CC)(c1ccc(OCC(O)C(C)(C)C)c(C)c1)c1cc(C)c(C(=O)OC)s1 (single isomer, unassigned) [Ex. 6B]",323,–,–
1030,146,CCC(CC)(c1ccc(OCC(O)C(C)(C)C)c(C)c1)c1ccc(C(=O)OC)s1 (stereo not shown) [Ex. 5],–,–,–
901,–,CCC(CC)(c1ccc(OCC(O)C(C)(C)C)c(C)c1)c1cc(C)c(S(=O)(=O)NCC(=O)OC)s1 (stereo not shown) [Ex. 136],431,–,–
